Measurements published in PubChem BioAssay (NCI).
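Method: 48-hour compound exposure of cells in 96-well plates, five concentrations, linear interpolation of endpoints. GI50 is the concentration that inhibits growth by half. At the TGI there is no net growth.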

Experiments:
Assay in all cases: NCI-60 cell line screen, 48 h
[1] = test system: 786-0 renal
[2] = test system: A498 renal
[3] = test system: A549 NSCLC
[4] = test system: ACHN renal
[5] = test system: HCC-2998 colon
[6] = test system: HT29 colon
[7] = test system: LOX IMVI melanoma
[8] = test system: SK-MEL-2 melanoma
[9] = test system: SW-620 colon
[10] = test system: TK-10 renal

`COCCNc1cc(NC(=O)N2CCCc3cc(CN4CCN(C)CC4=O)c(C=O)nc32)ncc1C#N` was tested, and the GI50 [1] was 29.5 µM, the TGI [1] was over 50 µM and the GI50 [2] was over 50 µM. The TGI [2] was over 50 µM, the GI50 [3] was over 50 µM and the TGI [3] was over 50 µM. It also gave a GI50 [4] of 23 µM, a TGI [4] of over 50 µM and a GI50 [5] of over 50 µM. For the same molecule, the TGI [5] was over 50 µM, the GI50 [6] was over 50 µM and the TGI [6] was over 50 µM. The GI50 [7] was over 50 µM, the TGI [7] was over 50 µM and the GI50 [8] was 36.6 µM. The TGI [8] was over 50 µM, the GI50 [9] was over 50 µM and the TGI [9] was over 50 µM. The GI50 [10] was over 50 µM and the TGI [10] was over 50 µM.
In the case of `c1ccc(CSc2nnc3c4ccccc4c4ccccc4c3n2)cc1`, the TGI [1] is reported as over 92.5 µM, the TGI [2] is reported as over 100 µM and the TGI [3] is reported as over 100 µM. For the same molecule, the TGI [4] was over 100 µM, the TGI [5] was over 100 µM and the TGI [6] was over 100 µM. It also gave a TGI [7] of over 100 µM, a TGI [8] of over 79.7 µM and a TGI [9] of over 100 µM. The TGI [10] was 84.5 µM.
With `CN(C)CC1CCCCCC(CN(C)C)C1=O` (stereo not given) the GI50 [1] was 12.8 µM, the TGI [1] was 33.2 µM and the GI50 [2] was 15.1 µM. For the same molecule, the TGI [2] was 29.6 µM, the GI50 [3] was 14.7 µM and the TGI [3] was 30.7 µM. It also gave a GI50 [4] of 1.07 µM, a TGI [4] of 2.64 µM and a GI50 [5] of 17.1 µM. It also gave a TGI [5] of 33.3 µM, a GI50 [6] of 1.35 µM and a TGI [6] of 2.78 µM. For the same molecule, the GI50 [7] was 7.68 µM, the TGI [7] was 25 µM and the GI50 [8] was 3.82 µM. It also gave a TGI [8] of 13.4 µM, a GI50 [9] of 1.13 µM and a TGI [9] of 2.72 µM. It also gave a GI50 [10] of 0.852 µM and a TGI [10] of 2.13 µM.
`O=C(COc1cccc(/C=C2\COc3ccc(Cl)cc3C2=O)c1)c1ccc(Cl)cc1` was tested, and the GI50 [1] was 16.1 µM, the TGI [1] was 29.7 µM and the GI50 [2] was 13.8 µM. The TGI [2] was 27.1 µM, the GI50 [3] was 16.3 µM and the TGI [3] was 32.1 µM. For the same molecule, the GI50 [4] was 15.4 µM, the TGI [4] was 29.4 µM and the GI50 [5] was 3.71 µM. It also gave a TGI [5] of 15.1 µM, a GI50 [6] of 7.69 µM and a TGI [6] of 20.2 µM. For the same molecule, the GI50 [7] was 3.2 µM, the TGI [7] was 13.2 µM and the GI50 [8] was 7.4 µM. For the same molecule, the TGI [8] was 21.1 µM, the GI50 [9] was 3.3 µM and the TGI [9] was 13 µM. It also gave a GI50 [10] of 15.1 µM and a TGI [10] of 28.7 µM.
For `COc1cc2c3c(n(C)c(=O)c2cc1OC)-c1cc2c(cc1/C3=C\C(N)CN)OCO2` (stereo not given), the GI50 [1] was 1.27 µM, the TGI [1] was 9.92 µM and the GI50 [2] was 1.37 µM. For the same molecule, the TGI [2] was 9.77 µM, the GI50 [3] was 3.5 µM and the TGI [3] was 21.1 µM. It also gave a GI50 [4] of 0.73 µM, a TGI [4] of 2.82 µM and a GI50 [5] of 3.22 µM. The TGI [5] was 50 µM, the GI50 [6] was 2.61 µM and the TGI [6] was over 100 µM. The GI50 [7] was 1.05 µM, the TGI [7] was 3.12 µM and the GI50 [8] was 4.71 µM. For the same molecule, the TGI [8] was over 22.8 µM, the GI50 [9] was 0.689 µM and the TGI [9] was 11.9 µM. For the same molecule, the GI50 [10] was 1.45 µM and the TGI [10] was 26.5 µM.
For `CC1(C)CC[C@]2(C(=O)N3CCOCC3)CC[C@]3(C)C(=CC[C@@H]4[C@@]5(C)C/C(=C/c6ccncc6)C(=O)C(C)(C)[C@@H]5CC[C@]43C)[C@@H]2C1`, the GI50 [1] was 1.66 µM, the TGI [1] was 12.4 µM and the GI50 [2] was 1.83 µM. It also gave a TGI [2] of 4.96 µM, a GI50 [3] of 1.22 µM and a TGI [3] of over 100 µM. It also gave a GI50 [4] of 2.2 µM, a TGI [4] of 21.7 µM and a GI50 [5] of 1.66 µM. It also gave a TGI [5] of 7.82 µM, a GI50 [6] of 0.912 µM and a TGI [6] of 54.5 µM. For the same molecule, the GI50 [7] was 1.24 µM, the TGI [7] was 2.72 µM and the GI50 [8] was 2.33 µM. For the same molecule, the TGI [8] was 7.27 µM, the GI50 [9] was 2.29 µM and the TGI [9] was over 100 µM. For the same molecule, the GI50 [10] was 6.46 µM and the TGI [10] was over 100 µM.
With `COc1cc(C)c(O)c(C(=O)O)c1` the TGI [1] was over 100 µM, the TGI [2] was over 100 µM and the TGI [3] was over 100 µM. The TGI [4] was over 100 µM, the TGI [5] was over 100 µM and the TGI [6] was over 100 µM. It also gave a TGI [7] of over 100 µM, a TGI [8] of over 100 µM and a TGI [9] of over 100 µM. For the same molecule, the TGI [10] was over 100 µM.
Work on `CCCCCCCOc1c(OC)cc(C2CC(=O)Nc3c2c(C)nn3-c2nc3ccccc3[nH]2)cc1OC` (stereo not given) yielded a GI50 [1] of 3.61 µM, a TGI [1] of 21.8 µM and a GI50 [2] of 0.881 µM. For the same molecule, the TGI [2] was 3.9 µM, the GI50 [3] was 4.18 µM and the TGI [3] was over 100 µM. For the same molecule, the GI50 [4] was 3.21 µM, the TGI [4] was over 100 µM and the GI50 [5] was 74.1 µM. It also gave a TGI [5] of over 100 µM, a GI50 [6] of 4.06 µM and a TGI [6] of over 100 µM. The GI50 [7] was 2.12 µM, the TGI [7] was 4.51 µM and the GI50 [8] was 3.28 µM. It also gave a TGI [8] of 12.6 µM, a GI50 [9] of 2.11 µM and a TGI [9] of 5.18 µM. The GI50 [10] was 3.12 µM and the TGI [10] was over 100 µM.
